Results reported in patent US20240293365A1, “METHODS FOR TREATING AND AMELIORATING T CELL RELATED DISEASES” (The Regents of the University of California, priority 2021, published 2024).

These compounds were tested against T1, ZAP70 kinase (Homo sapiens, UniProt P43403) (assay: saFRET-HTDS: ZAP70 saFRET biosensor screening of a 96-member kinase inhibitor library in HEK293 cells). Settings: 96-member kinase inhibitor library, 10 μM, FIG. 2D.
T1 construct: The FRET change is mediated by the kinase domain; saFRET biosensor module (FRET pair and sensing unit); expressed in transfected cells; host or cells: HEK293
T1 sequence (P43403 338-600 limits assumed): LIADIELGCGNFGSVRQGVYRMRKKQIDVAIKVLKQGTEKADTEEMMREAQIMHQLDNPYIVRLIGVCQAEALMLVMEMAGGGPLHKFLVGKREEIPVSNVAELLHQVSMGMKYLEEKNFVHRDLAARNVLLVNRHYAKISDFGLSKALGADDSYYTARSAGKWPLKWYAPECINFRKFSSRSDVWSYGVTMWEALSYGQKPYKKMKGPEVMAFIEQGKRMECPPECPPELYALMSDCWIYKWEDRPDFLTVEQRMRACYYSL
Format: cell-based
Protocol: We first screened a 96-member kinase inhibitor library to identify efficient inhibitors of ZAP70 kinase. […] After 40 minutes of incubation with inhibitors, the cells were imaged, and the FRET ratio changes of individual inhibitors compared to the solvent control were calculated to identify promising candidates after this primary endpoint screening (FIG. 2). We further exploited a control biosensor with a kinase-dead domain (saFRETkd) for counter screening to eliminate false-positive hits due to auto-fluorescence or other non-specific effects (1).
C, Schematics of saFRET assay in HEK293 cells.
A, Schematics of the high throughput drug screening platform. First, the cells cultured in 96-well glass-bottom plate were treated either with DMSO or inhibitors from the kinase inhibitor library. After 40 minutes of incubation, the cells were imaged, and the FRET ratio change compared to the control cell was calculated.

Row | Compound | top 10 selected inhibitors of the saFRET screening
1 | Cc1[nH]c(/C=C2\C(=O)Nc3ccc(S(=O)(=O)Cc4c(Cl)cccc4Cl)cc32)c(C)c1C(=O)N1CCC[C@@H]1CN1CCCC1 [PHA-665752] | top 10
2 | CN[C@@H]1C[C@H]2O[C@@](C)([C@@H]1OC)n1c3ccccc3c3c4c(c5c6ccccc6n2c5c31)C(=O)NC4 [staurosporine] | top 10
3 | NC(=O)Nc1cc(-c2cccc(F)c2)sc1C(=O)N[C@H]1CCCNC1 [AZD 7762] | top 10
4 | COc1ccc2cc(-c3nc(-c4ccc([S+](C)[O-])cc4)[nH]c3-c3ccncc3)ccc2c1 (stereo not drawn) [Tie2 kinase inhibitor] | top 10

The remaining lines, values ahead:

Row | top 10 selected inhibitors of the saFRET screening | Compound
5 | top 10 | CCn1c(=O)c(-c2ccc(-c3cncs3)cc2Cl)cc2cnc(Nc3ccc(N4CCN(C)CC4)cc3)nc21 [FRAX 597]
6 | top 10 | NC1CCCN(c2c(/C=C3/SC(=O)NC3=O)cccc2-c2ccccc2)C1 (stereo not drawn) [AZD 1208]
7 | top 10 | CNC(=O)c1ccccc1Nc1nc(Nc2ccc(N3CCOCC3)cc2OC)ncc1Cl [NVP-TAE226]
8 | top 10 | COc1cc2c(Nc3ccc(NC(=O)c4ccccc4)cc3)ncnc2cc1OCCCN1CCOCC1 [ZM 447439]

Same assay, conditions: inhibitor 10 μM, 40 minutes incubation

Row | inhibition of ZAP70 kinase domain-mediated activation of saFRET biosensor (FRET ratio change vs solvent control) | Compound
9 | relatively ineffective | Cn1cc(-c2nc(N[C@@H]3CCCC[C@@H]3N)c(F)c3c2C(=O)NC3)cn1 [TAK-659]
